Reference: ChEMBL document CHEMBL3430912, “GSK Tres Cantos Anti-Kinetoplastid Screening (TCAKS) Data”

Assays:
Trypanosoma cruzi [1] = assay: GSK_TCAKS: pIC50 Trypanosoma cruzi viability assay using beta-GAL activity. This assay was run at single shot at 5uM compound concentration per well. The biological reagents consisted of NIH-3T3 host cells and trypomastigotes parasitic cells; both cell types were set to a 3.3 * 10^5 cells/mL dilution in assay DMEM by means of a CASY cell counter device using a 60um capillary. 6 uL of the mixture were dispensed per well (about 1 * 10^3 host-cells and 1 * 10^3 parasites) with a Multidrop Combi dispenser. […] In all wells, the percentage of DMSO never exceeded 0.5%. Plates incubated for four days at 37C, 5% CO2. The substrate used for the assay fluorescence intensity (FLINT) readout was resorufin-beta-D-galactopiranoside (Sigma-Aldrich) at 5uM per well. It was diluted in PBS supplemented with the soft detergent Igepal (Fluka).; format: functional, organism-based, Mus musculus; details: Tulahuen, NIH3T3
Trypanosoma cruzi [2] = assay: (§1) GSK_TCAKS: pIC50 Trypanosoma cruzi Imaging: Infected Cells. […] Cells were then washed once with PBS before infection. T. cruzi trypomastigotes, collected at days 5 to 8 after infection from LLC-MK2 parasite infected cultures, were allowed to swim out for 4h at 37C from a centrifuged pellet (2,500 rpm/10 min/room temperature). Trypomastigotes were then collected and counted in a CASY Cell Counter. Trypomastigotes, in supplemented DMEM, were added to H9c2 cultures in a multiplicity of infection of 1 and incubated for 18 h. Cells were washed once with PBS before incubation of the infected H9c2 monolayer with trypsin (Life-Technologies) to detach cells from the flask. Cells were counted in a CASY Cell Counter using a 150 um capillary and their density set at 5 * 10^4 cells per mL in supplemented assay DMEM. Infected H9c2 were dispensed into 384-well poly-lysine coated assay plates at 50uL per well using a Multidrop Combi dispenser. After seeding them, the plates were incubated at 37C, 5% CO2 for 72h. Cultures were then fixed and stained by addition of 50 uL of a solution containing 8% formaldehyde and 4 uM DRAQ5 DNA dye (BioStatus, UK) per well. […] Five images were collected per well for reliable statistical analysis. Automated image analysis was performed with a script developed on Acapella High Content Imaging and Analysis Software (PerkinElmer). Output: percentage of infected cells per well as a second infection marker.; format: functional, organism-based, Rattus norvegicus; details: H9c2, 4 h
Trypanosoma cruzi [3] = assay: GSK_TCAKS: pIC50 Trypanosoma cruzi Imaging: Amastigotes/Cell. […] Cells were then washed once with PBS before infection. T. cruzi trypomastigotes, collected at days 5 to 8 after infection from LLC-MK2 parasite infected cultures, were allowed to swim out for 4h at 37C from a centrifuged pellet (2,500 rpm/10 min/room temperature). Trypomastigotes were then collected and counted in a CASY Cell Counter. Trypomastigotes, in supplemented DMEM, were added to H9c2 cultures in a multiplicity of infection of 1 and incubated for 18 h. Cells were washed once with PBS before incubation of the infected H9c2 monolayer with trypsin (Life-Technologies) to detach cells from the flask. Cells were counted in a CASY Cell Counter using a 150 um capillary and their density set at 5 * 10^4 cells per mL in supplemented assay DMEM. Infected H9c2 were dispensed into 384-well poly-lysine coated assay plates at 50uL per well using a Multidrop Combi dispenser. After seeding them, the plates were incubated at 37C, 5% CO2 for 72h. Cultures were then fixed and stained by addition of 50 uL of a solution containing 8% formaldehyde and 4 uM DRAQ5 DNA dye (BioStatus, UK) per well. […] Five images were collected per well for reliable statistical analysis. Automated image analysis was performed with a script developed on Acapella High Content Imaging and Analysis Software (PerkinElmer). Output: number of amastigotes per cell as infection level measurement.; format: functional, organism-based, Rattus norvegicus; details: H9c2, 4 h
Trypanosoma cruzi [4] = assay: as §1, with “H2C9” for “Trypanosoma cruzi”, “H9c2 Host Cardiomyocytes.” for “Infected Cells.”, “Number” for “percentage”, “H9c2 Host Cardiomyocytes nuclei to determine drug-related cytotoxicity.” for “infected cells per well as a second infection marker.”; format: functional, organism-based, Rattus norvegicus; details: H9c2, 4 h
Leishmania donovani [5] = assay: GSK_TCAKS: pIC50 Leishmania donovani viability assay using fluorescence intensity. Assay plates (1536-well) were prepared by adding 30nL per well of compound. For single shot assay, the final compound concentration was 5uM. […] Briefly, eGFP LdBOB axenic amastigotes were harvested, fixed and counted in a CASY cell counter (Roche-Applied Science). A final concentration of 1.5 * 10^5 cells per well were prepared in amastigote media containing 500 U/mL penicillin/streptomycin (Invitrogen) and 6uL was dispensed to each experimental well using a Multidrop Combi dispenser (Thermo Scientific). 6uL of assay media was dispensed to control columns used as reference for 100% compound response. Following incubation for 72 h at 37C, 5% CO2, 2 uL of resazurin was added to each well at a final concentration of 0.5 mM in phosphate buffered saline (PBS) with IGEPAL (Sigma-Aldrich), 0.05% (v/v).; format: functional, organism-based
Leishmania donovani [6] = assay: GSK_TCAKS: pIC50 Leishmania donovani Imaging: Infected Macrophages. Assay plates (384-well) were prepared by adding 250nL of compound to each well. For single shot assay, the final compound concentration was 5 uM. […] Automated image analysis was performed with a script developed on Acapella High Content Imaging and Analysis Software (PerkinElmer). Output: Percent of infected macrophage cells were reported for each well.; format: functional, organism-based, Homo sapiens; details: THP-1
Leishmania donovani [7] = assay: GSK_TCAKS: pIC50 Leishmania donovani Imaging: Amastigotes/Macrophages. Assay plates (384-well) were prepared by adding 250nL of compound to each well. For single shot assay, the final compound concentration was 5 uM. […] Automated image analysis was performed with a script developed on Acapella High Content Imaging and Analysis Software (PerkinElmer). Output: Average number of amastigotes per macrophage cell were reported for each well.; format: functional, organism-based, Homo sapiens; details: THP-1
Leishmania donovani [8] = assay: GSK_TCAKS: pIC50 Leishmania donovani Imaging: THP-1 Host Macrophages. Assay plates (384-well) were prepared by adding 250nL of compound to each well. For single shot assay, the final compound concentration was 5 uM. […] Automated image analysis was performed with a script developed on Acapella High Content Imaging and Analysis Software (PerkinElmer). Output: THP-1 cell count were reported for each well.; format: functional, organism-based, Homo sapiens
[9] = test system: Trypanosoma brucei brucei; assay: GSK_TCAKS: pIC50 Trypanosoma brucei viability assay using fluorescence intensity. Assay plates (1536-well) were prepared by dispensing 25nL of compound solution per well using an Echo acoustic dispenser (Labcyte).; format: functional, organism-based; details: Lister 427, 2 h
[10] = test system: Trypanosoma brucei brucei; assay: GSK_TCAKS: pIC50 Trypanosoma brucei viability assay using luminiscence. Assay plates (1536-well) were prepared. T. brucei cultures were harvested and counted in a CASY cell counter. A parasite suspension was prepared at a final concentration of 5 * 10^4 cells/mL in complete HMI9 medium and 6uL was dispensed to all wells containing compounds using a Multidrop Combi dispenser. 6uL of HMI9 media with 0.4% DMSO were dispensed to control columns. Plates were incubated for 24 h at 37C, 5% CO2 then tempered for 10 min at room temperature. ATP content was quantified by adding 4 uL of CellTiter-Glo Reagent (Promega) according to the manufacturer's instructions. Luminescence was measured using a ViewLux.; format: functional, organism-based; details: Lister 427, CASY
[11] = GSK_TCAKS: pIC50 HepG2 human cell line viability assay using luminiscence. […] Seeding density was checked to ensure that new mono-layers were not more than 50% confluent at the time of harvesting. Cell suspension was added to 500 mL of the same medium at a final density of 1.2 * 10^5 cells/mL. This cell suspension was dispensed (25 uL, 3000 cells per well) into 384-well clear-bottom plates using a Multidrop Combi dispenser. Prior to addition of the cell suspension, the screening compounds (250 nL) were pre-dispensed into the plates with an Echo liquid handler. Plates were incubated for 48 h at 37C, 5% CO2. After incubation, plates equilibrated at room temperature for 30 min before proceeding to develop the luminescent signal. The signal developer, CellTiter-Glo Reagent, was allowed to equilibrate at room temperature for 30 min and added to the plates (25uL per well) using a Multidrop Combi dispenser. Plates were left for 10 min at room temperature for stabilization and then read using a ViewLux.; format: toxicity, cell-based
NIH3T3 = assay: GSK_TCAKS: pIC50 NIH 3T3 cell line viability assay using luminiscence. Tissue culture surface treated assay plates (1536-well) were used. […] The 100% cells survival control was determined exposing the host-cells to a 0.5% DMSO concentration, whereas the 100% toxicity control was achieved by seeding the cells in presence of Amphotericin B at 50uM. Plates were incubated for four days at 37C, 5% CO2. The assay readout was developed by addition of 5uL of CellTiter-Glo Reagent following the manufacturer's instructions. Luminiscence was measured using a ViewLux.; format: functional, cell-based; details: Mus musculus, NIH3T3, 96 h
[12] = target: Sterol 14-alpha demethylase (Trypanosoma cruzi (strain CL Brener), UniProt Q7Z1V1); assay: GSK_TCAKS: pIC50 CYP51 from Trypanosoma cruzi.; format: functional
Sequence of Sterol 14-alpha demethylase (Q7Z1V1 whole entry): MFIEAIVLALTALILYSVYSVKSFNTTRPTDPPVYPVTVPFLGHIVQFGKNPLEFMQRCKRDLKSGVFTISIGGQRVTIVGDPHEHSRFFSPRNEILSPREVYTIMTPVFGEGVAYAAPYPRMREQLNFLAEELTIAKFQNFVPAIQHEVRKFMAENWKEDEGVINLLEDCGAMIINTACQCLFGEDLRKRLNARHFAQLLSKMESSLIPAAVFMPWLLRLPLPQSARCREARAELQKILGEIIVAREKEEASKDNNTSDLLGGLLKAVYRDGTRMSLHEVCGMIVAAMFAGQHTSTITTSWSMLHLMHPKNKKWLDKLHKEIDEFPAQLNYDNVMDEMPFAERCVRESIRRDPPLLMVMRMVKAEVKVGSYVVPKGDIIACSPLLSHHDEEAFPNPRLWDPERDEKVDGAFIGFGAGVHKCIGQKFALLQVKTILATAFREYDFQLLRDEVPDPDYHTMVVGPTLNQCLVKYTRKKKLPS

Row | SMILES | IC50 (Trypanosoma cruzi [1]) [µM] | IC50 (Trypanosoma cruzi [2]) [µM] | IC50 (Trypanosoma cruzi [3]) [µM] | IC50 (Trypanosoma cruzi [4]) [µM] | IC50 (Leishmania donovani [5]) [µM] | IC50 (Leishmania donovani [6]) [µM] | IC50 (Leishmania donovani [7]) [µM] | IC50 (Leishmania donovani [8]) [µM] | IC50 [9] [µM] | IC50 [10] [µM] | IC50 at 48 h [11] [µM] | IC50 (NIH3T3) [µM] | IC50 [12] [µM]
1 | CNc1cncc(C2CCCN2C(=O)Cc2ccc3ccccc3c2)n1 (stereo not given) | 0.0794 | 0.158 | 0.158 | > 50.1 | > 50.1 | > 50.1 | > 50.1 | > 50.1 | > 39.8 | > 39.8 | > 100 | > 50.1 | 0.1
2 | O=C(NCCc1n[nH]c(-c2ccc(F)c(F)c2)n1)C1CCCCC1 | 2 | 2.51 | 1.58 | > 50.1 | > 50.1 | > 50.1 | 15.8 | 20 | 0.501 | 1 | > 100 | > 50.1 | 25.1
3 | COc1ccc(CN2CCCCC2c2nc(-c3cccnc3)no2)cc1 (stereo not given) | 0.794 | 0.794 | 0.631 | > 50.1 | > 50.1 | > 50.1 | > 50.1 | > 50.1 | > 39.8 | > 39.8 | > 100 | > 50.1 | 0.2
4 | COc1ccc(C(=O)N2CCC(Nc3cccnc3)C2)c(OC)n1 (stereo not given) | 0.316 | 0.794 | 0.794 | > 50.1 | 15.8 | > 50.1 | > 50.1 | > 50.1 | > 39.8 | > 39.8 | > 100 | > 50.1 | 0.0631
5 | OCCCNc1nc(Nc2ccncc2)nc2ccccc12 | 0.708 | 1.26 | 0.2 | > 50.1 | 39.8 | > 50.1 | > 50.1 | > 50.1 | 25.1 | > 39.8 | > 100 | > 50.1 | > 100
6 | Cc1nn(C)c(Cl)c1CN(Cc1cccnc1)Cc1ccsc1 | 0.178 | 0.316 | 0.316 | > 50.1 | 2 | > 50.1 | 3.16 | > 50.1 | > 39.8 | > 39.8 | > 100 | 20 | 0.0631
7 | CC(Cn1ccnc1)NC(=O)COc1ccc(Cl)c(Cl)c1 (stereo not given) | 0.224 | 0.501 | 0.398 | > 50.1 | > 50.1 | > 50.1 | > 50.1 | > 50.1 | > 39.8 | > 39.8 | > 100 | > 50.1 | 0.0631
8 | Cc1ccc(C)c(OC2CCN(C(=O)C(C)n3ccnc3)CC2)c1 (stereo not given) | 0.178 | 0.398 | 0.316 | > 50.1 | 2.51 | > 50.1 | 0.316 | > 50.1 | > 39.8 | > 39.8 | > 100 | > 50.1 | 0.1
9 | Cc1[nH]c2ccccc2c(=O)c1Cc1c(C)[nH]c2ccccc2c1=O | 2.51 | 3.16 | 1 | > 50.1 | 20 | > 50.1 | > 50.1 | > 50.1 | > 39.8 | > 39.8 | > 100 | > 50.1 | > 100
10 | O=C(c1cnn(-c2ccccc2)n1)N1CCCC(n2ccnc2)C1 (stereo not given) | 0.0562 | 0.0794 | 0.0631 | > 50.1 | 7.94 | > 50.1 | 0.631 | > 50.1 | > 39.8 | 31.6 | > 100 | 20 | 0.0794
